This note sets out measurements from ChEMBL document CHEMBL5620346, “Current scenario of pyrazole hybrids with in vivo therapeutic potential against cancers” (Eur J Med Chem, 2023).

pIC50: −log10 of the molar value.

Data set [1] can be described thus: Antitumor activity against human HuT 102 cells xenografted in mouse assessed as reduction in tumor growth at 14 mg/kg, po relative to control. The settings on record: read-out: TGI. In kind it is functional. Background: In xenograft studies the graft and the host belong to different species.
Data set [2] in a line: Cytotoxicity against human HuT 102 cells assessed as reduction in cell growth incubated for 72 hrs by MTT assay. In kind it is functional, cell-based. The settings on record: HuT-102, 72 h. (In general: Formazan colour is commonly taken as a measure of viable cells.)
Data set [3] deals with Heat shock protein HSP 90-alpha (Homo sapiens, UniProt P07900). Kind of data set: Inhibition of human recombinant HSP90alpha expressed in Escherichia coli BL21 (DE3) incubated for 12 hrs by.
In data set [4] the target is Heat shock protein HSP 90-beta (Homo sapiens, UniProt P08238). Kind of data set: Inhibition of human recombinant HSP90beta expressed in Escherichia coli BL21 (DE3) incubated for 12 hrs.
The nature of data set [5]: Cytotoxicity against human OATL4 cells assessed as cell growth inhibition incubated for 72 hrs by MTT assay. In kind it is functional, cell-based. The settings on record: OATL4, 72 h.
Data set [6] can be described thus: Cytotoxicity against human KOB cells assessed as cell growth inhibition incubated for 72 hrs by MTT assay. Format: functional, cell-based.
For data set [7], the system named is HT-29. As to the kind of experiment: Antiproliferative activity against human HT-29 cells assessed as reduction in cell viability incubated for 72 hrs by MTT assay. In kind it is functional, cell-based. Particulars: HT-29, 72 h.
In data set [8] the test system is HT-29. As to the kind of experiment: Antitumor activity against human HT-29 cells xenografted in po dosed nude mouse assessed as reduction in tumor growth at 20 mg/kg relative to control. Particulars: read-out: TGI. In kind it is functional.
Data set [9] has as its system HCT-116. Kind of data set: Antiproliferative activity against human HCT-116 cells assessed as reduction in cell viability incubated for 72 hrs by MTT assay. Particulars: HCT-116, 72 h. In kind it is functional, cell-based.
The nature of data set [10]: Tmax in mouse at 1 mg/kg, sc. Format: ADME, organism-based. The settings on record: in vivo.
Data set [11] can be described thus: Oral bioavailability in mouse at 1 mg/kg. The settings on record: in vivo. In kind it is ADME, organism-based.
Data set [12] relates to HeLa. Kind of data set: Antiproliferative activity against human HeLa cells assessed as reduction in cell viability incubated for 72 hrs by MTT assay. Format: functional, cell-based.
A short description of data set [13]: Cmax in mouse at 1 mg/kg, sc. The settings on record: in vivo. Format: ADME, organism-based.
Another data set has as its system HGC-27. As to the kind of experiment: Antiproliferative activity against human HGC-27 cells assessed as reduction in cell viability incubated for 72 hrs by MTT assay. In kind it is functional, cell-based. Particulars: HGC-27, 72 h.
Data set [14] can be described thus: Tmax in mouse at 40 mg/kg, po. In kind it is ADME, organism-based. The settings on record: in vivo.
The nature of data set [15]: Half life in mouse at 40 mg/kg, po. In kind it is ADME, organism-based. The settings on record: in vivo.
Another data set deals with KCL-22. As to the kind of experiment: Antitumor activity against human KCL-22 cells xenografted in mouse assessed as reduction in tumor growth at 3 mg/kg, po relative to control. Particulars: KCL-22, po, read-out: TGI.
For data set [16], the target named is Receptor-type tyrosine-protein kinase FLT3 (Homo sapiens, UniProt P36888, D835H). As to the kind of experiment: Inhibition of FLT3 D835H mutant (unknown origin).
The subject of the next data set is MV4-11. As to the kind of experiment: Antitumor activity against human MV4-11 cells xenografted in mouse assessed as tumor growth inhibition at 200 mg/kg, po relative to control. Format: functional. Particulars: read-out: TGI.
Data set [17] deals with Cyclin-dependent kinase 4 (Homo sapiens, UniProt P11802). Kind of data set: Inhibition of CDK4 (unknown origin).
Data set [18] concerns OE19. As to the kind of experiment: Antitumor activity against human OE19 cells xenografted in NOD/SCID mouse model assessed as tumor growth inhibition at 25 mg/kg, ip administered for 14 days relative to control. Format: functional. The settings on record: OE19, 336 h, time 14 day, read-out: TGI.
In data set [19] the test system is OE19. As to the kind of experiment: Antitumor activity against human OE19 cells xenografted in NOD/SCID mouse model assessed as tumor growth inhibition at 25 mg/kg, ip administered for 14 days in presence of flavopiridol relative to control. In kind it is functional. Also on record: scale not given: the % may be the effect or the level left. Particulars: time 14 day.

The test system of the next data set is NCI-H460. As to the kind of experiment: Antitumor activity against human NCI-H460 cells xenografted in nude mouse assessed as tumor growth inhibition at 6.25 mg/kg, po administered twice daily for 14 days in presence of 2-deoxyglucose relative to control. In kind it is functional. Further details: scale not given: the % may be the effect or the level left. The settings on record: time 14 day.

Data set [20] relates to OE19. Kind of data set: Antitumor activity against human OE19 cells xenografted in NOD/SCID mouse model assessed as tumor growth inhibition at 25 mg/kg, ip administered for 46 days relative to control. Format: functional. Also on record: scale not given: the % may be the effect or the level left. The settings on record: time 46 day.
In data set [21] the test system is H22. Kind of data set: Antitumor activity against mouse H22 cells implanted in Kunming mouse assessed as reduction in tumor growth at 20 mg/kg, iv relative to control. The settings on record: read-out: TGI. Format: functional.
Data set [22] has as its system H22. Kind of data set: Antitumor activity against mouse H22 cells implanted in Kunming mouse assessed as reduction in tumor growth at 10 mg/kg, iv relative to control. In kind it is functional. Particulars: read-out: TGI.
For data set [23], the target named is Ubiquitin carboxyl-terminal hydrolase 8 (Homo sapiens, UniProt P40818). Kind of data set: Inhibition of human USP8 expressed in Escherichia coli using K63-linked di-ubiquitin (ENZO BML-UW0730-0050) as substrate preincubated for 15 mins followed by substrate addition and measured after 20 mins by fluorescence based analysis.
The subject of a further data set is MDA-MB-435. As to the kind of experiment: Antitumor activity against human MDA-MB-435 cells xenografted in Sprague-Dawley rat model assessed as reduction in tumor volume at 50 mg/kg, ip relative to control. Also on record: scale not given: the % may be the effect or the level left. Format: functional.
The test system of data set [24] is MCF7. Kind of data set: Cytotoxicity against human MCF7 cells assessed as reduction in cell viability measured after 72 hrs by SRB assay. Format: functional, cell-based. Particulars: MCF7, 72 h.
A further data set deals with MCF-10A. As to the kind of experiment: Cytotoxicity against human MCF-10A cells assessed as reduction in cell viability measured after 72 hrs by SRB assay. Format: functional, cell-based. In general terms: Sulforhodamine B stains cellular protein and so reports cell mass.
Data set [25] deals with HeLa. As to the kind of experiment: Cytotoxicity against human HeLa cells assessed as reduction in cell viability incubated for 72 hrs by MTT assay. In kind it is functional, cell-based.
For a further data set, the system named is HepG2. As to the kind of experiment: Cytotoxicity against human HepG2 cells assessed as reduction in cell viability incubated for 72 hrs by MTT assay. In kind it is functional, cell-based. Particulars: HepG2, 72 h.
In data set [26] the test system is MCF7. Kind of data set: Cytotoxicity against human MCF7 cells assessed as reduction in cell viability incubated for 72 hrs by MTT assay. In kind it is functional, cell-based. Particulars: MCF7, 72 h.
Data set [27] in a line: Oral bioavailability in rat. The settings on record: in vivo.
A short description of data set [28]: Oral bioavailability in dog. The settings on record: in vivo.
The subject of data set [29] is HT-29. Kind of data set: Antitumor activity against human HT-29 cells xenografted in nude mouse assessed as reduction in tumor growth at 50 mg/kg, ip administered for 21 days relative to control. In kind it is functional. Particulars: HT-29, 504 h, time 21 day, read-out: TGI.
Data set [30] deals with HT-29. As to the kind of experiment: Antiproliferative activity against human HT-29 cells assessed as cell growth inhibition incubated for 72 hrs by MTT assay. In kind it is functional, cell-based. Particulars: HT-29, 72 h.
Data set [31] concerns HT-29. As to the kind of experiment: Antitumor activity against human HT-29 cells xenografted in nude mouse assessed as reduction in tumor growth at 50 mg/kg, po administered for 21 days relative to control. Format: functional. The settings on record: HT-29, 504 h, time 21 day, read-out: TGI.
For data set [32], the system named is MCF7. As to the kind of experiment: Antiproliferative activity against human MCF7 cells assessed as cell growth inhibition incubated for 72 hrs by MTT assay. Format: functional, cell-based. Particulars: MCF7, 72 h.
For data set [33], the system named is HCT-116. As to the kind of experiment: Antitumor activity against human HCT-116 cells xenografted in BALB/c nude mouse assessed as tumor growth inhibition at 25 mg/kg, po administered once a daily for 13 consecutive days relative to control. Format: functional. The settings on record: read-out: TGI.

Sequence of Cyclin-dependent kinase 4 (P11802 whole entry): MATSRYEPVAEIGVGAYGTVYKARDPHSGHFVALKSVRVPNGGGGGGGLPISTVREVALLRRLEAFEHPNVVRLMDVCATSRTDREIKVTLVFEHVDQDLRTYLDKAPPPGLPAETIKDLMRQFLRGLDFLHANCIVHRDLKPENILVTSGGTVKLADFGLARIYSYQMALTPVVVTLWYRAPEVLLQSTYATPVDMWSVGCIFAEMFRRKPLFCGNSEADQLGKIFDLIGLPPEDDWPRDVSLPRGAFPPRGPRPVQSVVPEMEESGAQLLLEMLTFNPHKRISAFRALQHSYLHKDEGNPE
Sequence of Ubiquitin carboxyl-terminal hydrolase 8 (P40818 whole entry): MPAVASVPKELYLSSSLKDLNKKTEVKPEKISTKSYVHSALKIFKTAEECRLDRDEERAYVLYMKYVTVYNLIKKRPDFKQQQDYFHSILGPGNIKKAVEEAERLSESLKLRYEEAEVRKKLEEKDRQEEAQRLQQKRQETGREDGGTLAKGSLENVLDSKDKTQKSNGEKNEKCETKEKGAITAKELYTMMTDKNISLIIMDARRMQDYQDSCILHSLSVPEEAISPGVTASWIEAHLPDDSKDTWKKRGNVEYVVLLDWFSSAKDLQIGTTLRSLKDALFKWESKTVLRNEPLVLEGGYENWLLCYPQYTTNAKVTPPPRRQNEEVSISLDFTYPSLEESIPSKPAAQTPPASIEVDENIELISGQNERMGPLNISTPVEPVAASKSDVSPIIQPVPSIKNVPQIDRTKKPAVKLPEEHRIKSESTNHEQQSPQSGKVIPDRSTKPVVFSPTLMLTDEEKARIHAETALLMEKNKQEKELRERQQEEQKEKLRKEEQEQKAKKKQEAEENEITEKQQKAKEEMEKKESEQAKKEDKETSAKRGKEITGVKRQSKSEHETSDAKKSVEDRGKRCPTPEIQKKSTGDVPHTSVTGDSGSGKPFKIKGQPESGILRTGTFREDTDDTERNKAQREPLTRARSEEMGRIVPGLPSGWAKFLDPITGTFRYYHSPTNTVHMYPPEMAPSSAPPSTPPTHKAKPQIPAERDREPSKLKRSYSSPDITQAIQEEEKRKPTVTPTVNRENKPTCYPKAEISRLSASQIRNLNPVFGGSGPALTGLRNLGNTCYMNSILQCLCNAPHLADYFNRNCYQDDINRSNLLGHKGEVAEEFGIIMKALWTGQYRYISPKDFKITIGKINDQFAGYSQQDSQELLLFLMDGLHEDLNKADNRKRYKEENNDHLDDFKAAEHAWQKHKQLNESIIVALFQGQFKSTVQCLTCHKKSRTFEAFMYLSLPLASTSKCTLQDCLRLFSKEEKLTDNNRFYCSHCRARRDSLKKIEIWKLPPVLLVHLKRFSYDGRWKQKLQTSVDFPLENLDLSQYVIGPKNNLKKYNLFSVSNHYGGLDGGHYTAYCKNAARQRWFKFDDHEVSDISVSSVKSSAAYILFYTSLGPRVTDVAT
Sequence of Heat shock protein HSP 90-beta (P08238 whole entry): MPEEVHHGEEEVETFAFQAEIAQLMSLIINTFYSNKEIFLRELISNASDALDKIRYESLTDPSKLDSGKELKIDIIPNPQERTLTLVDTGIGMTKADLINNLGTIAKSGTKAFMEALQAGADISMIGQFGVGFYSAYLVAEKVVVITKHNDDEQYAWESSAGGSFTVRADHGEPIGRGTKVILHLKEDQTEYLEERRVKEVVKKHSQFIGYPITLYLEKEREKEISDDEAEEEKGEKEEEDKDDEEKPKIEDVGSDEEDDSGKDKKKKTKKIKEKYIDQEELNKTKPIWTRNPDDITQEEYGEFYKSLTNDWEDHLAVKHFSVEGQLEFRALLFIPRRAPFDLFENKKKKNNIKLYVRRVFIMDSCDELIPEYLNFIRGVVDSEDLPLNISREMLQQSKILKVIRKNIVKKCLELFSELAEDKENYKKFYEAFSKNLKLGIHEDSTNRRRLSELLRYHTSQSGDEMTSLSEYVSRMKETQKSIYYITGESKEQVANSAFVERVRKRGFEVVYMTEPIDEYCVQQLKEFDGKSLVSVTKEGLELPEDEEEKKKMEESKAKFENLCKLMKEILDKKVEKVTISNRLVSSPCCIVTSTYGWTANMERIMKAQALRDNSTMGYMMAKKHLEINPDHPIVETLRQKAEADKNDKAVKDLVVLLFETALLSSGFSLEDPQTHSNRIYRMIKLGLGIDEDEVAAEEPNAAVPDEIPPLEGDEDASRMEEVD

Broadly, the pIC50 is −log10 of the IC50, conventionally taken in molar units. On to `CCc1cc(C(N)=O)ccc1-n1nc(C(C)C)c2c(-n3cnc(-c4cnn(C)c4)c3)ccnc21` [TAS-116], for which, in data set [1], the inhibition in vivo at 14 mg/kg came out at 70%. Further, the pIC50 in [2] was 6.42; in data set [3], 7.46; in data set [4], 7.67; in data set [5], 6.42; in data set [6], 6.42.
One may read the Tmax as the time at which the peak concentration occurs. The bioavailability is dose-corrected exposure relative to a reference, in per cent. In general, Cmax refers to the maximum level reached in the sampled fluid or tissue. Take `COc1cc(/C=C2\CCCN3C(=O)C4C=NN(C)C4N=C23)cc(OC)c1OC` (stereo unspecified): the negative logarithm of the IC50 (pIC50) with HT-29 [7], with HCT-116 [9], with HeLa [12] and with HGC-27 was 7.52 throughout. For the same molecule, the inhibition in vivo at 20 mg/kg in the data set with HT-29 [8] is 61.7%. Moreover, the Tmax in [10] came out at 1.67 h. This molecule yielded a bioavailability in [11] of 78.6%. For the same molecule, in data set [13], the concentration peaked (Cmax) at 68.8 ng/mL.
As a reminder, the half-life is the time in which the quantity being followed falls by half. On to `O=C(Nc1ccc(OC(F)(F)Cl)cc1)c1cnc(N2CC[C@@H](O)C2)c(-c2ccn[nH]2)c1` [ASCIMINIB], for which the time to peak (Tmax) in data set [14] was found to be 2.5 h. Further, the half-life in [15] is 5.5 h. In the data set on KCL-22, the inhibition in vivo at 3 mg/kg was determined as 65%.
Consider `CCN1CCN(c2ccc(Nc3ncc(F)c(-c4cnc5cnn(C(C)C)c5c4)n3)cc2OC)CC1`, for which the figures for the pIC50 in [16] and in [17] were 7.96 and 8.15, respectively. Besides, the inhibition in vivo at 200 mg/kg in the data set with MV4-11 worked out at 67%.
As for `C[C@@]1(C(=O)Nc2ccc(F)nc2)CCCN1c1nc(Nc2cc(C3CC3)n[nH]2)c2cccn2n1` [BMS-754807], the inhibition in vivo at 25 mg/kg in the data set on OE19 [18] came out at 52%. Besides, the Activity with OE19 [19] is on record as 92.2%; in the data set on NCI-H460 it was 69%; in the data set on OE19 [20], 61.8%.
As to `COc1cccc(C2=NN(C(N)=O)C(c3cn(C)c4ccc(Br)cc34)C2)c1` (stereo unspecified), in the data set on H22 [21], the inhibition in vivo at 20 mg/kg came out at 76%. The inhibition in vivo at 10 mg/kg with H22 [22] came out at 65%.
Molecule `Brc1ccc(-n2nc(-c3cccnc3)cc2-c2ccccc2)cc1` showed a negative-log IC50 (pIC50) in data set [23] of 5.92. For the same molecule, the Activity in the data set with MDA-MB-435 stood at 40%.
Turning to `COc1ccc(C2CC(c3ccc(OC)c(OC)c3)=NN2c2nc(-c3ccccc3)cs2)cc1` (stereo unspecified), the results for the negative-log IC50 (pIC50) in the data set on MCF7 [24] and in the data set on MCF-10A were 5.14 and under 4.30, respectively.
As to `CCOC(=O)C1=C(N/C=N/c2cccnc2Cl)Nc2[nH]nc(C)c2C1c1ccc(N(C)C)cc1` (stereo unspecified), the pIC50 was 5.38 with HeLa [25], 5.34 with HepG2 and 5.37 in the data set on MCF7 [26].
The like results for `Cc1n[nH]c2c1C(c1ccc(N(C)C)cc1)C(C(N)=O)=C(N)N2` (stereo unspecified) were, in that order, 5.38, 5.34 and 5.37.
`COc1cc(OC)c(F)c(COc2cnc(Nc3cnn(CCO)c3)nc2)c1F` [ASP-5878]: the bioavailability stood at 76.1% in [27] and 94.2% in data set [28].
`O=C1CN(CC(=O)N2N=C(c3ccccc3)CC2c2ccccc2)C(=O)N1` (stereo unspecified): the inhibition in vivo at 50 mg/kg was found to be 31% in the data set on HT-29 [29] and 34% with HT-29 [31]. Moreover, the values for the pIC50 with HT-29 [30] and in the data set with MCF7 [32] were 8.00 and 6.16, respectively.
For the molecule `O=c1[nH]cc(F)c(=O)[nH]1` [FLUOROURACIL], the inhibition in vivo at 25 mg/kg in the data set with HCT-116 [33] came out at 54.8%.
`CCOC(=O)C1=C(N)Nc2[nH]nc(C)c2C1c1ccc(N(C)C)cc1` (stereo unspecified): the values for the pIC50 with HeLa [25], in the data set with HepG2 and in the data set on MCF7 [26] were 5.38, 5.34 and 5.37, respectively.
